# Results taken from patent publication US20110098304A1, “Small molecule inhibitors of PARP activity” (priority 2009, published 2011).
# Biological target: T1, human PARD-1 (Poly (ADP-Ribose) Polymerase-1) (Homo sapiens, UniProt P09874)
# T1 construct: purchased Trevigen Inc., Gaithersburg, Md
# Experiment: Poly (ADP-Ribose) Polymerase-1 in vitro enzyme assay (Universal Colorimetric Assay Kit, Trevigen)
# Assay type: biochemical
# Conditions: letter codes; read-out: extent of inhibition of PARP activity (IC50, micromolar)
# Procedure: Poly (ADP-Ribose) Polymerase-1 (PARD-1) In Vitro Enzyme Assay: Compounds were screened for inhibitory activity against human PARD-1 in vitro using the Universal Colorimetric PARD Assay Kit (Trevigen Inc., Gaithersburg, Md.) as directed by the supplier. Compounds are assayed in duplicate in 0.5% DMSO final concentration, negative control is no enzyme, while positive control is DMSO vehicle alone. IC50 determinations are made using Microsoft Excel. For all cell assays, compounds are added to cells in 5% DMSO/PBS for a final concentration of 0.5% DMSO.
# T1 sequence (P09874 whole entry): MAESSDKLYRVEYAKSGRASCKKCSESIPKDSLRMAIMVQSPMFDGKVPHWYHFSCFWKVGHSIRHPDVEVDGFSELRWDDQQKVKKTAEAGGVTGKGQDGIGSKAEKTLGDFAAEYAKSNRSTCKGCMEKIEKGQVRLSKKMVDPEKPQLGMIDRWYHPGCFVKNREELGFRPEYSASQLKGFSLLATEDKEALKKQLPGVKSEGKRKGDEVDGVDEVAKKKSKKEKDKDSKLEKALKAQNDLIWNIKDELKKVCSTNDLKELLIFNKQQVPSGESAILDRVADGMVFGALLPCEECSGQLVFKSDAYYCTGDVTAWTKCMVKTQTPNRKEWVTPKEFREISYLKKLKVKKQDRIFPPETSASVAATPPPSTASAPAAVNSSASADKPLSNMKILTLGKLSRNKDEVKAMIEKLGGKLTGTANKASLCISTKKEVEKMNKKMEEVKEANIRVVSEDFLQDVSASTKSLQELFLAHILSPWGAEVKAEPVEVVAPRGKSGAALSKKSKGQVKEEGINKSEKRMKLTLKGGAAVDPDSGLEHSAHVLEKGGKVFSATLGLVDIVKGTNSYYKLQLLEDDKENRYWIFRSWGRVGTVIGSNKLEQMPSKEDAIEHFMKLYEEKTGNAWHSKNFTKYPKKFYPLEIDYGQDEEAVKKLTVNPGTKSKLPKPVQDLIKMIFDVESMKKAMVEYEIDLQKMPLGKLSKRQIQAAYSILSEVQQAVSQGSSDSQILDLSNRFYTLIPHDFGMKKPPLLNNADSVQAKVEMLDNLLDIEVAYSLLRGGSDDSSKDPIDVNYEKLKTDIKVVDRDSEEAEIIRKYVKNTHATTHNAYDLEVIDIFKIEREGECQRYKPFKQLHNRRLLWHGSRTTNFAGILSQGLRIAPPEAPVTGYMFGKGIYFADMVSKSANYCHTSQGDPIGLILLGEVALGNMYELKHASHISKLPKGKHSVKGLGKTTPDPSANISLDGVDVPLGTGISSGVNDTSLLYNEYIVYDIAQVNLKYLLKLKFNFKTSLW
row,SMILES,IC50
1,"CN1CCN(c2ccc(-c3n[nH]c(=O)c4ccccc34)cc2NC(=O)Nc2ccc(F)cc2)CC1 [1-(4-fluorophenyl)-3-(2-(4-methylpiperazin-1-yl)-5-(4-oxo-3,4-dihydrophthalazin-1-yl)phenyl)urea]",0.1 to 1 µM
2,"Nc1cc(-c2n[nH]c(=O)c3ccccc23)ccc1N1CCN(CC(=O)O)CC1 [2-(4-(2-amino-4-(4-oxo-3,4-dihydrophthalazin-1-yl)phenyl)piperazin-1-yl)acetic acid]",0.001 to 0.1 µM
3,"N#CCCN1CCN(c2ccc(-c3n[nH]c(=O)c4ccccc34)cc2N)CC1 [3-(4-(2-amino-4-(4-oxo-3,4-dihydrophthalazin-1-yl)phenyl)piperazin-1-yl)propanenitrile]",0.001 to 0.1 µM
4,"Nc1cc(-c2n[nH]c(=O)c3ccccc23)ccc1N1CCN(CCC(=O)O)CC1 [3-(4-(2-amino-4-(4-oxo-3,4-dihydrophthalazin-1-yl)phenyl)piperazin-1-yl)propanoic acid]",0.1 to 1 µM
5,"CN1CCN(c2ccc(-c3n[nH]c(=O)c4ccccc34)cc2NC(=O)c2cccc(C#N)c2)CC1 [3-cyano-N-(2-(4-methylpiperazin-1-yl)-5-(4-oxo-3,4-dihydrophthalazin-1-yl)phenyl)benzamide]",0.1 to 1 µM
6,CN1CCC(N2CCN(c3ccc(-c4n[nH]c(=O)c5ccccc45)cc3N)CC2)CC1 [4-(3-amino-4-(4-(1-methylpiperidin-4-yl)piperazin-1-yl)phenyl)phthalazin-1(2H)-one],0.001 to 0.1 µM
7,CN(C)CCN1CCN(c2ccc(-c3n[nH]c(=O)c4ccccc34)cc2N)CC1 [4-(3-amino-4-(4-(2-(dimethylamino)ethyl)piperazin-1-yl)phenyl)phthalazin-1(2H)-one],0.1 to 1 µM
8,Nc1ccccc1N1CCN(c2ccc(-c3n[nH]c(=O)c4ccccc34)cc2N)CC1 [4-(3-amino-4-(4-(2-aminophenyl)piperazin-1-yl)phenyl)phthalazin-1(2H)-one],1 to 5 µM
9,Nc1cc(-c2n[nH]c(=O)c3ccccc23)ccc1N1CCN(CCO)CC1 [4-(3-amino-4-(4-(2-hydroxyethyl)piperazin-1-yl)phenyl)phthalazin-1(2H)-one],0.001 to 0.1 µM
10,COCCN1CCN(c2ccc(-c3n[nH]c(=O)c4ccccc34)cc2N)CC1 [4-(3-amino-4-(4-(2-methoxyethyl)piperazin-1-yl)phenyl)phthalazin-1(2H)-one],0.1 to 1 µM
11,Nc1cc(-c2n[nH]c(=O)c3ccccc23)ccc1N1CCN(CCCO)CC1 [4-(3-amino-4-(4-(3-hydroxypropyl)piperazin-1-yl)phenyl)phthalazin-1(2H)-one],0.001 to 0.1 µM
12,Nc1cc(-c2n[nH]c(=O)c3ccccc23)ccc1N1CCN(CC2CCCO2)CC1 (stereo not drawn) [4-(3-amino-4-(4-((tetrahydrofuran-2-yl)methyl)piperazin-1-yl)phenyl)phthalazin-1(2H)-one],0.1 to 1 µM
13,Nc1cc(-c2n[nH]c(=O)c3ccccc23)ccc1N1CCN(CC2CCCCC2)CC1 [4-(3-amino-4-(4-(cyclohexylmethyl)piperazin-1-yl)phenyl)phthalazin-1(2H)-one],0.001 to 0.1 µM
14,Nc1cc(-c2n[nH]c(=O)c3ccccc23)ccc1N1CCN(CC2CC2)CC1 [4-(3-amino-4-(4-(cyclopropylmethyl)piperazin-1-yl)phenyl)phthalazin-1(2H)-one],0.001 to 0.1 µM
15,Nc1cc(-c2n[nH]c(=O)c3ccccc23)ccc1N1CCN(Cc2cccnc2)CC1 [4-(3-amino-4-(4-(pyridin-3-ylmethyl)piperazin-1-yl)phenyl)phthalazin-1(2H)-one],0.001 to 0.1 µM
16,Nc1cc(-c2n[nH]c(=O)c3ccccc23)ccc1N1CCN(c2ccncc2)CC1 [4-(3-amino-4-(4-(pyridin-4-yl)piperazin-1-yl)phenyl)phthalazin-1(2H)-one],0.001 to 0.1 µM
17,Nc1cc(-c2n[nH]c(=O)c3ccccc23)ccc1N1CCN(Cc2ccncc2)CC1 [4-(3-amino-4-(4-(pyridin-4-ylmethyl)piperazin-1-yl)phenyl)phthalazin-1(2H)-one],0.001 to 0.1 µM
18,Nc1cc(-c2n[nH]c(=O)c3ccccc23)ccc1N1CCN(Cc2ccccc2)CC1 [4-(3-amino-4-(4-benzylpiperazin-1-yl)phenyl)phthalazin-1(2H)-one],0.1 to 1 µM
19,Nc1cc(-c2n[nH]c(=O)c3ccccc23)ccc1N1CCN(C2CCCC2)CC1 [4-(3-amino-4-(4-cyclopentylpiperazin-1-yl)phenyl)phthalazin-1(2H)-one],0.001 to 0.1 µM
20,Nc1cc(-c2n[nH]c(=O)c3ccccc23)ccc1N1CCN(C2CC2)CC1 [4-(3-amino-4-(4-cyclopropylpiperazin-1-yl)phenyl)phthalazin-1(2H)-one],0.001 to 0.1 µM
21,CCN1CCN(c2ccc(-c3n[nH]c(=O)c4ccccc34)cc2N)CC1 [4-(3-amino-4-(4-ethylpiperazin-1-yl)phenyl)phthalazin-1(2H)-one],0.001 to 0.1 µM
22,Nc1cc(-c2n[nH]c(=O)c3ccccc23)ccc1N1CCN(C(=O)c2ccncc2)CC1 [4-(3-amino-4-(4-isonicotinoylpiperazin-1-yl)phenyl)phthalazin-1(2H)-one],0.1 to 1 µM
23,CC(C)N1CCN(c2ccc(-c3n[nH]c(=O)c4ccccc34)cc2N)CC1 [4-(3-amino-4-(4-isopropylpiperazin-1-yl)phenyl)phthalazin-1(2H)-one],0.001 to 0.1 µM
24,CC(C)(C)N1CCN(c2ccc(-c3n[nH]c(=O)c4ccccc34)cc2N)CC1 [4-(3-amino-4-(4-tert-butylpiperazin-1-yl)phenyl)phthalazin-1(2H)-one],0.001 to 0.1 µM
25,Nc1cc(-c2n[nH]c(=O)c3ccccc23)ccc1N1CCNCC1 [4-(3-amino-4-(piperazin-1-yl)phenyl)phthalazin-1(2H)-one],0.001 to 0.1 µM
26,"CCN1CCN(c2ccc(-c3n[nH]c(=O)c4ccccc34)cc2NC(=O)C(C)(C)C)CC1 [N-(2-(4-ethylpiperazin-1-yl)-5-(4-oxo-3,4-dihydrophthalazin-1-yl)phenyl)pivalamide]",> 5 µM
27,"CN1CCN(c2ccc(-c3n[nH]c(=O)c4ccccc34)cc2NC(=O)c2ccc3c(c2)OCO3)CC1 [N-(2-(4-methylpiperazin-1-yl)-5-(4-oxo-3,4-dihydrophthalazin-1-yl)phenyl)benzo[d][1,3]dioxole-5-carboxamide]",0.1 to 1 µM

# More lines, now with the values ahead:
row,IC50,SMILES
1,0.1 to 1 µM,"CN1CCN(c2ccc(-c3n[nH]c(=O)c4ccccc34)cc2NC(=O)NC2CCCCC2)CC1 [1-cyclohexyl-3-(2-(4-methylpiperazin-1-yl)-5-(4-oxo-3,4-dihydrophthalazin-1-yl)phenyl)urea]"
2,0.1 to 1 µM,"CN1CCN(c2ccc(-c3n[nH]c(=O)c4ccccc34)cc2NC(=O)NC2CCCC2)CC1 [1-cyclopentyl-3-(2-(4-methylpiperazin-1-yl)-5-(4-oxo-3,4-dihydrophthalazin-1-yl)phenyl)urea]"
3,1 to 5 µM,"CCNC(=O)Nc1cc(-c2n[nH]c(=O)c3ccccc23)ccc1N1CCN(C)CC1 [1-ethyl-3-(2-(4-methylpiperazin-1-yl)-5-(4-oxo-3,4-dihydrophthalazin-1-yl)phenyl)urea]"
4,0.1 to 1 µM,"CNC(=O)Nc1cc(-c2n[nH]c(=O)c3ccccc23)ccc1N1CCN(C)CC1 [1-methyl-3-(2-(4-methylpiperazin-1-yl)-5-(4-oxo-3,4-dihydrophthalazin-1-yl)phenyl)urea]"
5,0.1 to 1 µM,"CN1CCN(c2ccc(-c3n[nH]c(=O)c4ccccc34)cc2NC(=O)NC(C)(C)C)CC1 [1-tert-butyl-3-(2-(4-methylpiperazin-1-yl)-5-(4-oxo-3,4-dihydrophthalazin-1-yl)phenyl)urea]"
6,0.1 to 1 µM,"CN1CCN(c2ccc(-c3n[nH]c(=O)c4ccccc34)cc2NC(=O)CCl)CC1 [2-chloro-N-(2-(4-methylpiperazin-1-yl)-5-(4-oxo-3,4-dihydrophthalazin-1-yl)phenyl)acetamide]"
7,0.001 to 0.1 µM,CN1CCN(c2ccc(-c3n[nH]c(=O)c4ccccc34)cc2N)CC1 [4-(3-amino-4-(4-methylpiperazin-1-yl)phenyl)phthalazin-1(2H)-one]
8,1 to 5 µM,"CC(=O)Nc1cc(-c2n[nH]c(=O)c3ccccc23)ccc1N1CCN(C(C)=O)CC1 [N-(2-(4-acetylpiperazin-1-yl)-5-(4-oxo-3,4-dihydrophthalazin-1-yl)phenyl)acetamide]"
9,1 to 5 µM,"CCN1CCN(c2ccc(-c3n[nH]c(=O)c4ccccc34)cc2NC(C)=O)CC1 [N-(2-(4-ethylpiperazin-1-yl)-5-(4-oxo-3,4-dihydrophthalazin-1-yl)phenyl)acetamide]"
10,1 to 5 µM,"CC(=O)Nc1cc(-c2n[nH]c(=O)c3ccccc23)ccc1N1CCN(C(C)C)CC1 [N-(2-(4-isopropylpiperazin-1-yl)-5-(4-oxo-3,4-dihydrophthalazin-1-yl)phenyl)acetamide]"
11,1 to 5 µM,"CN1CCN(c2ccc(-c3n[nH]c(=O)c4ccccc34)cc2NC(=O)Cc2cccs2)CC1 [N-(2-(4-methylpiperazin-1-yl)-5-(4-oxo-3,4-dihydrophthalazin-1-yl)phenyl)-2-(thiophen-2-yl)acetamide]"
12,0.1 to 1 µM,"CC(=O)Nc1cc(-c2n[nH]c(=O)c3ccccc23)ccc1N1CCN(C)CC1 [N-(2-(4-methylpiperazin-1-yl)-5-(4-oxo-3,4-dihydrophthalazin-1-yl)phenyl)acetamide]"
13,0.1 to 1 µM,"CN1CCN(c2ccc(-c3n[nH]c(=O)c4ccccc34)cc2NC(=O)C2CCCCC2)CC1 [N-(2-(4-methylpiperazin-1-yl)-5-(4-oxo-3,4-dihydrophthalazin-1-yl)phenyl)cyclohexanecarboxamide]"
14,0.1 to 1 µM,"CN1CCN(c2ccc(-c3n[nH]c(=O)c4ccccc34)cc2NC(=O)c2ccco2)CC1 [N-(2-(4-methylpiperazin-1-yl)-5-(4-oxo-3,4-dihydrophthalazin-1-yl)phenyl)furan-2-carboxamide]"
15,1 to 5 µM,"CC(C)C(=O)Nc1cc(-c2n[nH]c(=O)c3ccccc23)ccc1N1CCN(C)CC1 [N-(2-(4-methylpiperazin-1-yl)-5-(4-oxo-3,4-dihydrophthalazin-1-yl)phenyl)isobutyramide]"
